From patent publication US20060009478A1, “Methods for the treatment of back pain” (priority 2003, published 2006)

Legend:
[1] = naltrexone hydrochloride in solution mixed with croscarmellose sodium in suspension; cited from earlier work
[2] = Plasma concentrations of oxycodone, oxymorphone, noroxycodone, naltrexone and 6β-naltrexol by solid phase extraction LC-MS/MS
Excerpt: Patients with moderate-to-severe pain due to osteoarthritis of the hip or knee were randomly assigned to one of four treatment groups as shown in Table 3 of Example 1. Plasma samples were obtained for each patient at the beginning of Weeks 1, 2, 3 and at the end of dosing during Week 3.
For the analysis of linearity and dose proportionality, linear equation coefficients were obtained by averaging patient-specific slopes and intercepts obtained by within-patient least squares regression. This was done to account for the correlation among the repeated measurements due to the patient's contributing data at each dose level. The resulting slopes among treatment groups were compared by one-way analysis of variance (ANOVA), and a one-sample t-test assessed the common slope's difference from zero. A measure of deviation from linearity was constructed as the difference between the concentration at the middle dose versus the average of the concentrations at the lower and higher doses. Due to equal spacing of doses, this measure has expectation zero under the hypothesis of linearity. As above, ANOVA and t-tests were used to assess linearity.
To achieve symmetry, modified log transformations were used.

[3] = system: patients with moderate to severe chronic pain due to osteoarthritis of the hip or knee; assay: Emax composite model of 6β-naltrexol plasma concentration versus percent change in pain intensity; conditions: for EC51 Estimate / EC52 Estimate / Emax1 Estimate / Emax2 Estimate: WinNonlin
Description: As discussed in more detail below, the percent change in pain intensity was the drug effect used in a modeling analysis of plasma concentration vs. drug effect.
The plasma concentration-effect data were fit to the Emax composite model using the software program WinNonlin®(commercially available from Pharsight Corporation of Mountain View, Calif.) and the command files developed by Gabrielsson et al. The plasma concentration-effect data represented as circles in FIG. 11 were evaluated mathematically and the plasma concentration-effect curve shown in FIG. 11 was determined by the program and command files. Similarly, the program and command files were used to determine the plasma concentration-effect curve shown in FIG. 12 based on the data represented as circles in FIG. 12.
The computer output (printout) of this process included EC51 and EC52 parameters, as well as parameters reflecting statistical evaluation of the data, such as coefficient of variation (CV %).
These parameters are based on the data for 6β-naltrexol plasma concentrations and reduction in pain from baseline pain intensity to final pain intensity from all subjects for whom plasma concentration data was obtained as described herein. These parameters are based on data from subjects receiving the BID dosing regimens and subjects receiving the QID dosing regimen. Estimate refers to the value estimated by the WinNonlin® program and command file for relating plasma concentrations to the pharmacodynamic effects such as percent reduction in pain intensity.
These parameters are based on the data (6β-naltrexol plasma concentrations and percent reduction in pain intensity) for subjects receiving BID dosing regimens.

[4] = Total (BID and QID) data, curve of FIG. 11

SMILES: O=C1CC[C@@]2(O)[C@H]3Cc4ccc(O)c5c4[C@@]2(CCN3CC2CC2)[C@H]1O5 [naltrexone]
- Fraction of naltrexone hydrochloride bound by croscarmellose sodium [1]: more than 90%

SMILES: CN1CC[C@]23c4c5ccc(O)c4O[C@H]2C(=O)CC[C@@]3(O)[C@H]1C5 [oxymorphone]
- Mean plasma concentration versus dose level over the course of the study ([2]; FIGS. 1 and 2): increased linearly with increasing dose levels
- Plasma concentration of oxymorphone (ng/mL) versus dose of oxycodone (mg/day): slope of linear equation ([2]; average of patient-specific regressions, slope p<0.001, t-test): 0.007153
- Plasma concentration of oxymorphone versus dose of oxycodone (mg/day): intercept of linear equation ([2]; average of patient-specific within-patient least squares regressions, all active treatments): 0.0607 ng/mL

SMILES: Oc1ccc2c3c1O[C@H]1[C@H](O)CC[C@@]4(O)[C@@H](C2)N(CC2CC2)CC[C@]314 [6β-naltrexol]
- Plasma concentrations over the course of the study (sampled at the end of each treatment week) ([2]; FIG. 7, combination drug BID and QID): remained constant throughout the study
- EC51 Estimate ([3]; BID data, curve of FIG. 12): 14.0 pg/mL
- EC52 Estimate ([3]; BID data, curve of FIG. 12): 0.422 pg/mL
- Emax1 Estimate ([3]; BID data, curve of FIG. 12): 27.0 units
- Emax2 Estimate ([3]; BID data, curve of FIG. 12): 76.3 units
- EC52 parameter, 6β-naltrexol plasma concentration ([3]; Emax composite model, total (BID and QID) data, Table 26, effect = percent reduction in pain intensity, 6β-naltrexol as surrogate for naltrexone): about 0.439 μg/ml
- EC51 Estimate [3, 4]: 14.4 pg/mL
- EC52 Estimate [3, 4]: 0.439 pg/mL
- Emax1 Estimate [3, 4]: 26.8 units
- Emax2 Estimate [3, 4]: 79.7 units
